Series [1] in a line: UV-vis spectrophotometric titration for proton dissociation constants. Particulars: for pKa: 60% (v/v) DMSO/H2O solvent mixture, 60% (v/v) DMSO/H2O, I = 0.10 M (KCl), 25 °C. The series is classed as physicochemical. As to the method:
The pH-potentiometric titrations for the calibration of the electrode system were performed in 30% (v/v) and 60% (v/v) DMSO/H2O solvent mixtures using 0.10 M KCl background electrolyte at 25.0 ± 0.1 °C as described in our previous works.
A Thermo Evolution 220 spectrophotometer was used to record the UV-visible (UV-vis) spectra in the 260 to 750 nm window. The path length was varied between 2 and 50 mm. As a result of the limited solubility of the compounds in water, the spectrophotometric titrations were performed to determine the proton dissociation constants (pKa) of the ligand and its complex at 5 μM concentration using 5 cm path length. Due to the light sensitivity of the studied compounds, the samples were covered and were kept in the dark during the titrations. The starting sample volume was 50 mL. These titrations were performed in the pH range 2.0–12.5 (30% (v/v) DMSO/H2O) and 2.0–14.0 (60% (v/v) DMSO/H2O). Samples were deoxygenated by bubbling purified argon through them for approximately 10 min prior to the measurements and argon was also passed over the solutions during the spectrophotometric titrations. Calculation of the proton dissociation constants was performed with the computer program PSEQUAD [28].
Titrations were performed first in 30% (v/v) DMSO/H2O mixture due to the limited water solubility of the ligand. The sample was protected from light and, for a given portion of the sample, the UV-vis spectrum was recorded only once. […] Following this experiment, the titration was repeated in 60% (v/v) DMSO/H2O mixture (Figure 7), and no precipitation was found in the whole pH range (1.73−13.67) under this condition. However, only three deprotonation steps were observed, most probably because one of the deprotonation steps was already completed at the starting pH.
To elucidate the pKa assignment, 2-hydrazinobenzothiazole (considered as a fragment of the title ligand) was titrated under similar conditions to monitor the spectral changes during the deprotonation of the benzothiazole moiety.

The test system of series [2] is HCT-116, A375, CT-26, B16F10 and HaCaT cell lines. The series is described as follows: Preliminary MTT antiproliferative screening on cell line panel. Particulars: 20 and 40 μM, 48 h.
Method: The MTT [32] and Guava ViaCount assays [33, 34] were used to assess cell viability in the absence (negative control) or presence of increasing concentrations of [Ni(HL)(acetate)], [Ru(HL)Cl(DMSO)] and 5-FU (positive control). Briefly, cells were plated at a concentration of 5 × 10^4 cells/mL in 96-well plates (200 μL/well) and cultured for 24 h in the culture conditions described above. Afterwards, supernatant was removed, and cells were incubated with [Ni(HL)(acetate)] and [Ru(HL)Cl(DMSO)] at concentrations ranging from 0.5 to 40 μM or from 0.5 to 100 μM for the 5-FU (positive control). Negative controls were cells maintained in complete culture medium. After 48 h, culture medium was discarded, cells were washed twice with PBS and 50 μL of MTT at 0.5 mg/mL in incomplete medium was added to all wells. After a 2 to 3 h incubation period at 37 °C and 5% CO2 environment, 100 μL DMSO was added to each well to solubilise the formazan crystals, and absorbance was measured at 570 nm using a microplate reader Model 680 (Bio-Rad, CA, USA). Between three to four independent experiments were carried out, with six replicates per condition. GraphPad Prism®8 (GraphPad Software, San Diego, CA, USA) was used to analyse cell proliferation and values were plotted and fit to a standard log dose-response curve. The IC50 values were calculated using Equation (2) [35]:log IC50 = log X1 + {[(Y1 − (Y0)/2)]/(Y1 − Y2)} × (log X2 − log X1)(2) where, Y0/2 is the half-cell density of the negative control; Y1 is the cell density above Y0/2; X1 is the concentration corresponding to Y1; Y2 is the cell density below Y0/2; X2 is the concentration corresponding to Y2. The IC50 was determined by linear interpolation between X1 and X2.
Thus, to evaluate the antiproliferative properties of the newly synthetised metal complexes, a preliminary screening was performed using human (HCT-116 and A375) and murine (CT-26 and B16F10) colon cancer and melanoma cell lines, respectively. […]
The test system of series [3] is HCT-116 colon cancer cells. The series is described as follows: MTT antiproliferative assay, HCT-116. It is filed as cell-based, human. Particulars: HCT-116, MTT, 48 h incubation. As to the method:
(§1) Murine colon cancer CT-26 (ATCC® CRL-263™) cells were cultured in RPMI-1640, supplemented with 10% foetal bovine serum (FBS) and 100 IU/mL of penicillin and 100 μg/mL streptomycin (Gibco, Thermo Fisher Scientific, Waltham, MA, USA), hereafter designated as complete culture medium. Human colon cancer HCT-116 (ATCC® CCL-247™), human melanoma A375 (ATCC® CCL-1619™), murine melanoma B16F10 (ATCC® CCL-6475™) cells and human epidermal keratinocytes (HaCaT) were maintained in Dulbecco’s modified Eagle’s medium (DMEM) with high-glucose (4500 mg/L) (Sigma-Aldrich, St. Louis, MO, USA), supplemented with 10% FBS and 100 IU/mL of penicillin and 100 μg/mL streptomycin (Gibco, Thermo Fisher Scientific, Waltham, MA, USA), also designated as complete culture medium. The cell lines were maintained at 37 °C in a 5% CO2 environment and cells were trypsinised every 2–3 days when 80% confluence was reached.
(§2) Negative controls were cells maintained in complete culture medium.
On the technique in general: Formazan colour is commonly taken as a measure of viable cells.

A short description of series [4]: Shake-flask n-octanol/buffer distribution coefficient (D7.4). It is filed as physicochemical. Particulars: n-octanol/buffered aqueous solution, 25 °C, read-out: logD7.4. As to the method:
The distribution coefficient values (D7.4) of the compounds were determined by the traditional shake-flask method in n-octanol/buffered aqueous solution at pH 7.40 (10 mM HEPES buffer, in the absence or in the presence of 0.10 M KCl) at 25.0 ± 0.2 °C. The samples and stock solutions were protected from light until the spectrophotometric concentration determination. The ligand and complex were dissolved at 150 and 100 μM concentrations in n-octanol, respectively. n-Octanol was presaturated with the HEPES solution with the given KCl concentration. The aqueous solution and n-octanol ratio was 9:1 (instead of the usual 1:1 ratio due to the high lipophilicity of the compounds). […] After separation, UV-vis spectra of the compounds in the n-octanol phase were recorded and compared to the spectra of the n-octanol stock solution. D7.4 values were calculated as in the following Equation (1): (1) D7.4=Aoct,1/Aoct,0−Aoct,1×Vwater phase/Voctanol phase where Aoct,0 and Aoct,1 are the absorbance values of the n-octanol phase before and after separation, respectively, Vwater phase and Voctanol phase are the volumes of the two phases.
The distribution coefficients (D7.4) for H2L and the Ru-complex (as model complex) were determined using HEPES buffer (pH = 7.4) for the aqueous phase. Distribution was measured in the absence and presence of 100 mM KCl. […]

For a further series, the system named is CT-26 colon cancer cells. In words: MTT antiproliferative assay, CT-26. The series is classed as cell-based, murine. Particulars: CT-26, MTT, 48 h incubation. As to the method:
as §1, §2

The nature of series [5]: Light sensitivity in DMSO (UV-vis). The series is classed as physicochemical. As to the method: For the light sensitivity studies, DMSO solutions were prepared. The starting sample was separated equally for more portions, one was irradiated with diffuse light, while other portions were stored in the dark and measured only once.
The light sensitivity of H2L and its Ru-complex (as model metal compound) were tested by UV-vis spectrophotometry to further understand their behaviour. Samples were dissolved in DMSO and stored in the dark, while one portion was irradiated continuously by diffuse light. […] A relatively fast change is observed for the ligand in the first 1.5 h, and after that the spectrum has only minor changes (Figure 4A). […] Figure S16 depicts the spectral changes visible in Figure 4B. […] In the ligand, this may be due to a photoisomerisation process of the imine bond (Z/E isomers), which is quite common in hydrazones), but not in the Ru-complex, unless what is being observed in the complex solution is due to unbound ligand molecules.

Series [6] deals with bovine serum albumin (BSA) (Bos taurus, UniProt P02769). In words: Albumin binding by fluorescence quenching and circular dichroism. Particulars: BSA ca. 20–25 μM, bands centred at ca. 360 nm, compound 5 to 70 μM. As to the method: The concentration of BSA in the experiments was ca. 1.5 μM (in aqueous PBS). The fluorescence emission spectra were recorded between 310 and 575 nm, with λex = 295 nm. Successive additions of the complexes were done directly to the cuvette (optical path 1 cm) and the fluorescence emission spectra were recorded for each one under the same conditions. Blank assays for each sample, consisting in solutions with the same concentration of complex and no BSA, were recorded and subtracted to the corresponding emission spectra containing the fluorophore. The UV-vis spectra of the sample solutions were used to correct the emission spectra, minimizing inner filter and reabsorption phenomena interference.
The concentration of BSA in the experiments was ca. 20–25 μM (in aqueous PBS). The circular dichroism (CD) spectra are an average of three scan accumulations, recorded between 300 and 500 nm, with bandwidth of 1 nm and response of 2 s, using a scanning speed of 100 nm/min. Successive additions of the complexes stock solutions in DMSO were done directly to the cuvette (1 cm) and the CD spectra were recorded under the same conditions after 10 min equilibration. Induced CD spectra were obtained as the CD spectrum of compound-BSA mixture minus the CD spectrum of BSA alone and are expressed as ellipticity in millidegrees.
In general terms: Circular dichroism is the unequal absorption of left and right circularly polarised light.

The test system of the next series is CT-26 cells. The series is described as follows: Cell cycle analysis by PI flow cytometry, CT-26. Particulars: CT-26, 24 h, sub-toxic concentrations. It is filed as cell-based, murine. As to the method:
(§3) To understand the potential effects of [Ni(HL)(acetate)] and [Ru(HL)Cl(DMSO)] on cell cycle progression, CT-26 and HCT-116 cells were used. Briefly, cells were plated at a density of 5 × 10^4 cells/mL in 6-well plates (2 mL) and allowed to grow for 24 h at 37 °C with 5% CO2. CT-26 cells were then incubated with [Ni(HL)(acetate)] or [Ru(HL)Cl(DMSO)] at concentrations of 5 and 10 μM or 10 and 20 μM, respectively. For HCT-116 cell line, the tested concentrations were 5 and 7.5 μM, and 7.5 and 12.5 μM for [Ni(HL)(acetate)] and [Ru(HL)Cl(DMSO)], respectively. The positive control group, 5-FU, was tested at 0.5 and 2 μM and 20 and 40 μM for CT-26 and HCT-116, respectively. Negative control group was constituted by cells in the presence of complete culture medium. After a 24 h incubation period, cells were collected by centrifugation at 850× g for 5 min at 4 °C, suspended in 500 µL of ice-cold PBS, and fixed with 500 µL ice-cold 80% ethanol (−20 °C), added drop-by-drop, under gentle mixing. Prior to the analysis, samples were kept at 4 °C for at least 16 h. […] The ModFit LT™ 5.0 software was used to analyse the data and the percentages of cells in each cell cycle phase was determined (Verity Software House, Topsham, ME, USA).

Series [7] deals with HCT-116 cells. In words: Wound-healing migration assay, HCT-116. The series is classed as cell-based, human. The note with it: HCT-116, 12.5 μM, at 22 h (control 50%). As to the method: To assess cellular migration in the presence or absence of tested compounds, HCT-116 and CT-26 cells were plated at 1.5 × 10^5 and 3 × 10^5 cells/mL in a 12-well plate (1 mL/well) and were allowed to adhere and grow until reaching around 80–90% confluence. A sterile 10 μL pipette tip was used to wound the cell monolayer, followed by a washing step with PBS to remove debris. Then, cells were incubated with the tested compounds suspended in RPMI-1640 (CT-26) or DMEM media (HCT-116) supplemented with 2% FBS and 100 IU/mL of penicillin and 100 μg/mL streptomycin (Gibco, Thermo Fisher Scientific, Waltham, MA, USA), and hereafter designated as RPMI 2% and DMEM 2%, respectively. Under the above mentioned culture conditions, CT-26 cells were incubated with [Ni(HL)(acetate)] or [Ru(HL)Cl(DMSO)] at concentrations of 10 and 15 μM, respectively. […] The positive control, 5-FU, was tested at 1.5 and 40 μM for CT-26 and HCT-116, respectively. Negative control group was constituted by cells maintained in RPMI 2% (CT-26) and DMEM 2% (HCT-116). Images of the wound closure were taken beneath the stage of a Zeiss Axiovert 200 inverted microscope, using a 10× objective and a digital camera (CoolSNAP EZ, Photometrics, Huntington Beach, CA, USA) and recorded by the Metafluor Software at 0, 2, 4, 8, 18, 20 and 22 h following cell monolayer scratching (Molecular Devices, Sunnyvale, CA, USA). […]

Series [8] has as its system HCT-116 cells. In words: Cell cycle analysis by PI flow cytometry, HCT-116. The series is classed as cell-based, human. The note with it: HCT-116, 24 h, sub-toxic concentrations. As to the method: as §3
(In general: In flow cytometry, cells or beads pass a laser one at a time.)

Like-named read-outs stand apart in the source and are kept apart here.

Chain of bovine serum albumin (BSA) (P02769 25-607): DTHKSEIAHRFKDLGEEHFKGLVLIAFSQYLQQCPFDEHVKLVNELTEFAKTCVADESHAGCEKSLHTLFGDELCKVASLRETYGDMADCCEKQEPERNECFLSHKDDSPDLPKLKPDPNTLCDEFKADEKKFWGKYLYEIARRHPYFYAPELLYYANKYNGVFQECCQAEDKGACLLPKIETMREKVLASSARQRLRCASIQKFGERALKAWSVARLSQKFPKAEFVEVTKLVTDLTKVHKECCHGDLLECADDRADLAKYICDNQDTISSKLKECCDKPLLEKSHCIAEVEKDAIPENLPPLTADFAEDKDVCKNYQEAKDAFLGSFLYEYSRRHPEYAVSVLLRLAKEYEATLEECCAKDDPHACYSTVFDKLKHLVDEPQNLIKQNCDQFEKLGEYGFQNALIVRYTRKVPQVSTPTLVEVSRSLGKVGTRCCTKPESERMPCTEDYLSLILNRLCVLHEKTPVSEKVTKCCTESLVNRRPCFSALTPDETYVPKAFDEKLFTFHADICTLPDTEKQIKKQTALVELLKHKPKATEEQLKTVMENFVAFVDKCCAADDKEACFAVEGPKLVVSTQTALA

Regarding `NNc1nc2ccccc2s1` [2-Hydrazinobenzothiazole, 2-hydrazinobenzothiazole, reference compound], the pKa in series [1] (read-out: pKa2) amounted to 3.35 ± 0.03; in [1] (read-out: pKa3) it was 10.35 ± 0.03; in series [1] (read-out: pKa4), 12.86 ± 0.03. Moreover, the “antiproliferative / cytotoxic effect in preliminary screening” value (shortened to “antiproliferative / cytotoxic effect”) in series [2] is listed as “no effect”.
Consider `O=Cc1ccc2cccc(O)c2n1` [HQ2CHO, 2-carbaldehyde-8-hydroxyquinoline], for which the “antiproliferative / cytotoxic effect” value in series [2] is “cytotoxicity against the human melanoma and colon cancer cell lines”.
For `Oc1cccc2ccc(/C=N/Nc3nc4ccccc4s3)nc12` [H2L, (E)-2-((2-(benzo[d]thiazol-2-yl)Hydrazono)Methyl)Quinolin-8-ol], the IC50 (in general, the point on the concentration scale where inhibition reaches its midpoint) in series [3] (Homo sapiens) turned out to be 3 ± 0.8 µM; with CT-26 colon cancer cells (Mus musculus, CT26) it was 1.8 ± 0.4 µM. For the same compound, the “pH range of precipitation” value in series [1] (30% (v/v) DMSO/H2O, 5 μM) is 3.8−11.0. Besides, the pKa in [1] (read-out: pKa2) came out at 1.99 ± 0.03; in [1] (read-out: pKa3), 9.09 ± 0.04; in series [1] (read-out: pKa4) it was 12.99 ± 0.04. The “antiproliferative / cytotoxic effect” value in series [2] is recorded as “high cytotoxicity”. Besides, the logD at 4 h was 2.8 in series [4] (pH 7.4, n-octanol/10 mM HEPES pH 7.4, 0 mM KCl) and 3 in series [4] (pH 7.4, n-octanol/10 mM HEPES pH 7.4, 100 mM KCl). The light sensitivity entry in [5] (irradiated continuously by diffuse light) is reported as “strong light sensitivity”. In addition, the “spectral changes in the dark” value in series [5] (stored in the dark, 4 days of monitoring) is recorded as “only a small change”. Further, the “induced CD bands with BSA” value in series [6] is “high intensity induced CD bands”.
In the case of `CC(=O)[O][Ni][O]c1cccc2ccc(C=NNc3nc4ccccc4s3)nc12` [[Ni(HL)(acetate)]], the figures for the IC50 (in series [3]; with CT-26 colon cancer cells) were 8.6 ± 2 µM and 11 ± 2.3 µM, respectively. Further, the cell cycle arrest result with CT-26 cells was “arrested cell cycle at S phase”; with HCT-116 cells [8] it was “no such effect”. The maximum wound closure in the series on HCT-116 cells [7] is 32%. Further, the “induced CD bands with BSA” value in series [6] is given as “high intensity induced CD bands”.

For the origin of these results see article PMC9785144, “Metal Coordination and Biological Screening of a Schiff Base Derived from 8-Hydroxyquinoline and Benzothiazole” (Pharmaceutics, 2022).
